In patent publication US8278306B2 (Vertex Pharmaceuticals Incorporated, priority 2006, dated 2012):
pKi: −log10 of the molar value.

target: T1, ROCK I (AA 6-553) (Homo sapiens, UniProt Q13464); assay: ROCK inhibition assay, standard coupled enzyme system; type: biochemical; conditions: 45 nM ROCK I, 45 μM ATP, 200 μM peptide, 30° C.
T1 construct: ROCK I (AA 6-553)
Protocol: Reactions were carried out in a solution containing 100 mM HEPES (pH 7.5), 10 mM MgCl2, 25 mM NaCl, 2 mM DTT and 1.5% DMSO.

T1 sequence (Q13464 6-553, species assumed): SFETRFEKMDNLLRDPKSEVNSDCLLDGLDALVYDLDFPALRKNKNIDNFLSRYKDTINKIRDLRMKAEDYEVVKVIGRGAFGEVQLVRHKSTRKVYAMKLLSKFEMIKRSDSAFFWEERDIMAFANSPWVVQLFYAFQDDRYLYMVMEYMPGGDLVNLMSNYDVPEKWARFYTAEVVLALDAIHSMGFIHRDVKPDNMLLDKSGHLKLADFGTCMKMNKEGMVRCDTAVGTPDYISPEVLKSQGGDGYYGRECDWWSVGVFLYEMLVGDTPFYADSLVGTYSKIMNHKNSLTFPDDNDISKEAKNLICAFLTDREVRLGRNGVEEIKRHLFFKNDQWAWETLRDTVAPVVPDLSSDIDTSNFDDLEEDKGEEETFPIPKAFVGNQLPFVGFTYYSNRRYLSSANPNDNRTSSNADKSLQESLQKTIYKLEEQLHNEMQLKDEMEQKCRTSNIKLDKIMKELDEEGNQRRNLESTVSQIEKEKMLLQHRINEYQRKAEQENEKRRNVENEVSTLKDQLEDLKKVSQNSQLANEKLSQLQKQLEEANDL

SMILES | pKi
O=C(Cc1ccc(F)cc1)Nc1nc(-c2ccnc(Cl)c2)cs1 [Compound 2] | 6.00 to 7.00
COc1cc(-c2csc(NC(=O)Cc3ccc(F)cc3)n2)ccn1 [Compound 4] | < 6.00
CCOc1cc(-c2csc(NC(=O)Cc3cc4c(cc3Cl)OCO4)n2)ccn1 [Compound 6] | < 6.00
CCOc1cc(-c2csc(NC(=O)Cc3ccc(F)cc3)n2)ccn1 [Compound 7] | < 6.00
CN(C)c1cc(-c2csc(NC(=O)Cc3ccccc3Cl)n2)ccn1 [Compound 11] | < 6.00
CN(C)c1cc(-c2csc(NC(=O)Cc3cc4c(cc3Cl)OCO4)n2)ccn1 [Compound 12] | < 6.00
CCNc1cc(-c2csc(NC(=O)Cc3cccc(OC)c3)n2)ccn1 [Compound 15] | 6.00 to 7.00
Nc1cc(-c2csc(NC(=O)Cc3ccc(F)cc3F)n2)ccn1 [Compound 16] | > 7.00
Nc1cc(-c2csc(NC(=O)Cc3cc4c(cc3Cl)OCO4)n2)ccn1 [Compound 17] | > 7.00
CCNc1cc(-c2csc(NC(=O)Cc3cc4c(cc3Cl)OCO4)n2)ccn1 [Compound 22] | 6.00 to 7.00
Nc1cc(-c2csc(NC(=O)Cc3cccc(OCCCCl)c3)n2)ccn1 [Compound 24] | 6.00 to 7.00
O=C(Cc1ccc(F)cc1F)Nc1nc(-c2ccnc(NCc3ccccc3)c2)cs1 [Compound 25] | 6.00 to 7.00
O=C(Cc1cc2c(cc1Cl)OCO2)Nc1nc(-c2ccnc(NCc3ccccc3)c2)cs1 [Compound 26] | 6.00 to 7.00
CNc1cc(-c2csc(NC(=O)Cc3ccccc3Cl)n2)ccn1 [Compound 28] | 6.00 to 7.00
CCNc1cc(-c2csc(NC(=O)Cc3ccccc3Cl)n2)ccn1 [Compound 29] | 6.00 to 7.00
Cc1cc(-c2csc(NC(=O)Cc3ccc(F)cc3F)n2)ccn1 [Compound 30] | 6.00 to 7.00
Cc1cc(-c2csc(NC(=O)Cc3ccccc3Cl)n2)ccn1 [Compound 33] | 6.00 to 7.00
Nc1cc(-c2csc(NC(=O)Cc3cccc(O)c3)n2)ccn1 [Compound 34] | > 7.00
Nc1cc(-c2csc(NC(=O)Cc3ccccc3F)n2)ccn1 [Compound 35] | > 7.00
Cc1cc(-c2csc(NC(=O)Cc3ccccc3)n2)ccn1 [Compound 36] | 6.00 to 7.00
Cc1cc(-c2csc(NC(=O)Cc3cccc(O)c3)n2)ccn1 [Compound 37] | > 7.00
Cc1cc(-c2csc(NC(=O)Cc3ccccc3F)n2)ccn1 [Compound 38] | 6.00 to 7.00
Nc1cc(-c2csc(NC(=O)Cc3ccccc3)n2)ccn1 [Compound 41] | > 7.00
Cc1cc(-c2csc(NC(=O)Cc3ccc(NS(C)(=O)=O)cc3)n2)ccn1 [Compound 44] | 6.00 to 7.00

SMILES | pKi
CN1CCN(CCCOc2cccc(CC(=O)Nc3nc(-c4ccnc(N)c4)cs3)c2)CC1 [Compound 45] | > 7.00
O=C(Cc1ccccc1F)Nc1nc(-c2ccnc(Cl)c2)cs1 [Compound 46] | 6.00 to 7.00
O=C(Cc1cccc(O)c1)Nc1nc(-c2ccnc(Cl)c2)cs1 [Compound 48] | > 7.00
O=C(Cc1cc2c(cc1Cl)OCO2)Nc1nc(-c2ccnc(Cl)c2)cs1 [Compound 49] | > 7.00
O=C(Cc1ccccc1)Nc1nc(-c2ccnc(Cl)c2)cs1 [Compound 50] | 6.00 to 7.00
CN1CCN(CCCOc2cccc(CC(=O)Nc3nc(-c4ccnc(Cl)c4)cs3)c2)CC1 [Compound 53] | > 7.00
CCN1CCN(CCCOc2cccc(CC(=O)Nc3nc(-c4ccnc(Cl)c4)cs3)c2)CC1 [Compound 54] | > 7.00
O=C(Cc1cccc(OCCCN2CCNCC2)c1)Nc1nc(-c2ccnc(Cl)c2)cs1 [Compound 55] | > 7.00
O=C(Cc1ccc(F)cc1)Nc1nc(-c2ccnc(F)c2)cs1 [Compound 57] | 6.00 to 7.00
O=C(Cc1ccc(F)cc1F)Nc1nc(-c2ccnc(F)c2)cs1 [Compound 58] | > 7.00
CS(=O)(=O)Nc1cccc(CC(=O)Nc2nc(-c3ccnc(F)c3)cs2)c1 [Compound 59] | > 7.00
O=C(Cc1ccccc1)Nc1cc(-c2ccnc(F)c2)cs1 [Compound 66] | > 7.00
O=C(Cc1ccc(F)cc1)Nc1cc(-c2ccnc(F)c2)cs1 [Compound 67] | > 7.00
CS(=O)(=O)Nc1ccc(F)c(CC(=O)Nc2cc(-c3ccnc(F)c3)cs2)c1 [Compound 68] | > 7.00
O=C(Cc1ccc(F)cc1F)Nc1cc(-c2ccnc(F)c2)cs1 [Compound 69] | > 7.00
CCN(CC)S(=O)(=O)c1cccc(CC(=O)Nc2cc(-c3ccnc(F)c3)cs2)c1 [Compound 70] | > 7.00
CS(=O)(=O)Nc1ccc(F)c(CC(=O)Nc2cc(-c3ccnc(N)c3)cs2)c1 [Compound 76] | > 7.00
CN(C)S(=O)(=O)c1cccc(CC(=O)Nc2cc(-c3ccnc(N)c3)cs2)c1 [Compound 79] | 6.00 to 7.00
Cc1cc(-c2csc(NC(=O)Cc3cccc(NS(C)(=O)=O)c3)c2)ccn1 [Compound 82] | 6.00 to 7.00
Cc1cc(-c2csc(NC(=O)Cc3cccc(S(=O)(=O)N(C)C)c3)c2)ccn1 [Compound 83] | < 6.00
Cc1cc(-c2csc(NC(=O)Cc3ccccc3)c2)ccn1 [Compound 87] | 6.00 to 7.00
O=C(Cc1cccc(O)c1)Nc1cc(-c2ccnc(F)c2)cs1 [Compound 88] | > 7.00
O=C(Cc1ccc(OCCN2CCNCC2)cc1Cl)Nc1cc(-c2ccnc(Cl)c2)cs1 [Compound 95] | > 7.00
O=C(Cc1ccc(OCCCN2CCNCC2)cc1Cl)Nc1cc(-c2ccnc(Cl)c2)cs1 [Compound 97] | > 7.00

Now from value to compound:

pKi | SMILES
< 6.00 | CCOc1cc(-c2csc(NC(=O)Cc3cccc(OC)c3)n2)ccn1 [Compound 5]
< 6.00 | CCOc1cc(-c2csc(NC(=O)Cc3ccccc3Cl)n2)ccn1 [Compound 8]
6.00 to 7.00 | O=C(Cc1ccccc1Cl)Nc1nc(-c2ccnc(Cl)c2)cs1 [Compound 10]
< 6.00 | COc1cccc(CC(=O)Nc2nc(-c3ccnc(NCc4ccccc4)c3)cs2)c1 [Compound 14]
6.00 to 7.00 | CCNc1cc(-c2csc(NC(=O)Cc3ccc(F)cc3F)n2)ccn1 [Compound 21]
6.00 to 7.00 | CNc1cc(-c2csc(NC(=O)Cc3ccc(F)cc3F)n2)ccn1 [Compound 23]
> 7.00 | Nc1cc(-c2csc(NC(=O)Cc3ccccc3Cl)n2)ccn1 [Compound 27]
> 7.00 | Cc1cc(-c2csc(NC(=O)Cc3cc4c(cc3Cl)OCO4)n2)ccn1 [Compound 32]
6.00 to 7.00 | Cc1cc(-c2csc(NC(=O)Cc3cccc(OCCCN4CCN(C)CC4)c3)n2)ccn1 [Compound 39]
6.00 to 7.00 | Cc1cc(-c2csc(NC(=O)Cc3ccc(F)cc3)n2)ccn1 [Compound 40]
6.00 to 7.00 | Nc1cc(-c2csc(NC(=O)Cc3ccc(F)cc3)n2)ccn1 [Compound 42]
6.00 to 7.00 | CS(=O)(=O)Nc1ccc(CC(=O)Nc2nc(-c3ccnc(N)c3)cs2)cc1 [Compound 43]
6.00 to 7.00 | O=C(Cc1ccc(F)cc1F)Nc1nc(-c2ccnc(Cl)c2)cs1 [Compound 47]
6.00 to 7.00 | CS(=O)(=O)Nc1cccc(CC(=O)Nc2nc(-c3ccnc(Cl)c3)cs2)c1 [Compound 51]
> 7.00 | Nc1cc(-c2csc(NC(=O)Cc3cccc(OCCCN4CCNCC4)c3)n2)ccn1 [Compound 52]
> 7.00 | O=C(Cc1ccccc1F)Nc1nc(-c2ccnc(F)c2)cs1 [Compound 56]
> 7.00 | CN1CCN(CCCOc2cccc(CC(=O)Nc3nc(-c4ccnc(F)c4)cs3)c2)CC1 [Compound 60]
6.00 to 7.00 | O=C(Cc1cccc(S(=O)(=O)N2CCOCC2)c1)Nc1cc(-c2ccnc(F)c2)cs1 [Compound 71]
6.00 to 7.00 | CN(C)S(=O)(=O)c1cccc(CC(=O)Nc2cc(-c3ccnc(F)c3)cs2)c1 [Compound 78]
6.00 to 7.00 | Cc1cc(-c2csc(NC(=O)Cc3ccccc3F)c2)ccn1 [Compound 81]
6.00 to 7.00 | Cc1cc(-c2csc(NC(=O)Cc3cccc(NS(=O)(=O)N(C)C)c3)c2)ccn1 [Compound 84]
> 7.00 | Cc1cc(-c2csc(NC(=O)Cc3cc(NS(C)(=O)=O)ccc3F)c2)ccn1 [Compound 86]
> 7.00 | CN1CCN(CCOc2ccc(CC(=O)Nc3cc(-c4ccnc(Cl)c4)cs3)c(Cl)c2)CC1 [Compound 96]
> 7.00 | CN1CCN(CCCOc2ccc(CC(=O)Nc3cc(-c4ccnc(Cl)c4)cs3)c(Cl)c2)CC1 [Compound 98]
> 7.00 | O=C(Cc1ccc(OCCCC2CCNCC2)cc1)Nc1cc(-c2ccnc(Cl)c2)cs1 [Compound 99]
> 7.00 | CS(=O)(=O)Nc1ccc(F)c(CC(=O)Nc2cc(-c3ccnc(Cl)c3)cs2)c1 [Compound 100]
6.00 to 7.00 | NCCC(C(=O)Nc1cc(-c2ccnc(Cl)c2)cs1)c1ccc(F)cc1F (stereo not shown) [Compound 104]
> 7.00 | CN1CCN(CCOc2cccc(CC(=O)Nc3cc(-c4ccnc(N)c4)cs3)c2)CC1 [Compound 106]
